From US6537988B2, “Synergistic methods and compositions for treating cancer” (Bristol-Myers Squibb Company, priority 2000, dated 2003)
In brackets after ≈: the same amount, converted by molar mass. Entries after “also recorded” stand apart in the source; their conditions may differ. Read-outs that look alike come from different tables or passages of the source. Values belong to the molecule of their own block, whether it stands above or below them.

Columns and labels:
[1] = Maximum tolerated dose / regimen in tumor-bearing mice; assay type: in vivo, nude mice
Source text: The maximum tolerated dose (MTD) is defined as the dose level immediately above which excessive toxicity (i.e. more than one death) occurred. […] Activity is described at the OD.

[2] = system: HCTVM46 human colon carcinoma; assay: Multidrug-resistant HCT/VM46 xenograft (FIGS. 13, 14); conditions: single agents or Compound 1 followed 24 hr later with Compound 2
Procedure: (§1) Tumor response was determined by measurement of tumors with a caliper twice a week until the tumors reached a predetermined “target” size of 0.5 or 1.0 g. Tumor weights (mg) were estimated from the formula:
(§2) Tumor response end-point was expressed in terms of tumor growth delay (T-C value), defined as the difference in time (days) required for the treated tumors (T) to reach a predetermined target size compared to those of the control group (C).
(§3) A tumor is defined as “cured” when there is no detectable disease at the time of study termination (Day >75 days post-tumor implantation); the interval between study termination and the end of drug treatment always exceeded 10 times the volume doubling time of any particular tumor type.

[3] = system: MCF-7 estrogen-dependent human breast carcinoma; assay: MCF-7 xenograft, tamoxifen plus Compound 2; assay type: in vivo, nude mice; conditions: tamoxifen 40 mpk PO Q2D×14, Compound 2 po 100 mpk qd×10, two courses
Procedure: Tamoxifen was administered PO, Q2D×14.
The majority of human breast cancers require estrogen for growth and tumor progression (estrogen-dependent). […] In order to assess the efficacy of the combined anti-cancer agents of the invention in a human breast cancer model, MCF-7 xenografts were grown in nude mice and treated as described herein.

[4] = system: HT-29 human colon carcinoma; assay: Advanced HT-29 xenograft, gemcitabine plus Compound 2; assay type: in vivo, nude mice
Source text: The agent primarily kills cells undergoing DNA synthesis (S-phase) and also blocks the progression of cells through the G1/S-phase boundary.

[5] = system: A2780 human ovarian cancer cells; assay: Colony formation of A2780 cells, CDK inhibitor plus Compound 2; assay type: cell-based; conditions: 1.5 μM, 4 hour treatment
[6] = system: HCT-116 human colon carcinoma cells; assay: Clonogenic cell colony-formation assay, stationary vs log phase cells; conditions: for fold less sensitive: cells in exponential growth (Day 2) vs stationary phase (Day 8) / fold more sensitive: cells in exponential growth (Day 2) vs stationary phase (Day 8): HCT-116 in vitro, figure legends; for cytotoxicity against non-proliferating stationary cells: HCT-116, paclitaxel at concentrations as high as 162 nM
Procedure: (§4) At the end of a 16 h drug exposure, monolayer cell cultures were dissociated by exposing the cells to 0.05% trypsin for 5 min at 37° C. Cells were resuspended in complete media (containing 10% FBS), counted with a Coulter Channelyzer, diluted and plated with 5 replicates per dilution, into plastic tissue culture petri dishes. The cells were incubated in a humidified atmosphere for 10 days at 37° C. Cell colonies were stained with crystal violet and those with >50 cells per colony were scored.

[7] = system: advanced HCT116 human colon carcinoma; conditions: dose 30 mg/kg/inj; IV, Q2D × 5
Procedure: as §1, §2

[8] = system: HCT-116 human colon carcinoma cells
Procedure: as §4

[9] = system: Her-1 activated SAL-2 cancer cell line; assay type: cell-based; conditions: 20 hours exposure
Procedure: FIG. 18A: Clonogenic survival of the SAL-2 cell line following exposure to paclitaxel for 20 hours at the indicated concentrations.

[10] = system: HCT116 human colon carcinoma; conditions: Compound 2 125 mpk 24 h iv infusion; paclitaxel 24 mg/kg iv; alone or combined
Procedure: as §1, §2

[11] = system: advance HCT116 human colon carcinoma; conditions: dose 20 mg/kg/inj, IV, Q7D × 4
Procedure: Paclitaxel was administered IV at 20 mg/kg/inj, Q7D×4.
as §1, §2, §3

[12] = IC90 Log / IC90 Stationary, HCT116
[13] = read-out: IC90 Log (converted), log phase (proliferating) HCT116 cells, 16 h drug exposure
[14] = read-out: IC90 Stationary, stationary phase (non-proliferating, Day 8) HCT116 cells, 16 h drug exposure
[15] = read-out: IC90 Log (converted), log phase (proliferating) HCT116 cells
[16] = read-out: IC90 Stationary, stationary phase (non-proliferating) HCT116 cells

SMILES: C/C(=C\c1csc(C)n1)[C@@H]1C[C@@H]2O[C@]2(C)CCC[C@H](C)[C@H](O)[C@@H](C)C(=O)C(C)(C)[C@@H](O)CC(=O)N1 (relative stereo) [Compound 1, [1S-[1R*,3R*(E),7R*,10S*,11R*,12R*,16S*]]-7,11-dihydroxy-8,8,10,12,16-pentamethyl-3-[1-methyl-2-(2-methyl-4-thiazolyl)ethenyl]-4-aza-17-oxabicyclo[14.1.0]heptadecane-5,9-dione]
- maximum tolerated regimen ([1]; HCTVM46 study FIG. 13, single agents, q4d×3): 15 mg/kg
- maximum tolerated regimen ([1]; HCTVM46 study FIG. 14, Compound 1 iv q4d×3, Compound 2 ip q4d×3, single agents): 10 mg/kg
- tumor cure [2]: did not induce tumor cure
- log cell kill ([2]; maximum tolerated regimens, q4d×3): 1.6 LCK

SMILES: CC/C(=C(\c1ccccc1)c1ccc(OCCN(C)C)cc1)c1ccccc1 [Tamoxifen]
- tumor remission / cures [3]: no cures were observed
- effect on tumor growth ([3]; alone or combined): markedly more active

SMILES: CC(O)(CS(=O)(=O)c1ccc(F)cc1)C(=O)Nc1ccc(C#N)c(C(F)(F)F)c1 (centres unmarked) [Casodex®, bicalutamide]
- maximum tolerated doses and regimens ([1]; Pca-2b-AI study, Compound 2 po q1D×10, Casodex® po q1D×4): 150 mpk

SMILES: Nc1ccn([C@@H]2O[C@H](CO)[C@@H](O)C2(F)F)c(=O)n1 [Gemcitabine]
- response rate ([4]; single agent gemcitabine 6 mg/kg/inj (so in the source)): 25%
- response rate ([4]; single agent gemcitabine 24 mg/kg/inj): 0%
- MTD ([1]; gemcitabine IV, Q2D×4, HT-29 study): 36 mg/kg/inj

SMILES: CC(C)(C)c1cnc(CSc2cnc(NC(=O)C3CCNCC3)s2)o1 [Compound 9, N-[5-[[[5-(1,1-dimethylethyl)-2-oxazolyl]methyl]thio]-2-thiazolyl]-4-piperidinecarboxamide]
- effect of single agent [5]: no effect dose

- IC90 [6, 13]: 66800 nM
- IC90 [6, 14]: 1040 nM
SMILES: N#Cc1ccc2c(c1)CN(S(=O)(=O)N1CCCCC1)[C@H](Cc1ccccc1)CN2Cc1c[nH]cn1 [Compound 6, (R)-7-cyano-2,3,4,5-tetrahydro-1-(1H-imidazol-4-ylmethyl)-3-(phenylmethyl)-4-(1-piperidinylsulfonyl)-1H-1,4-benzodiazepine]
- fold less sensitive: cells in exponential growth (Day 2) vs stationary phase (Day 8) [6]: ~67 fold
- Non-proliferative cells selectivity ratio (fold) [6, 12]: 64.2 fold

- IC90 [6, 13]: 65000 nM
- IC90 [6, 14]: 360 nM
SMILES: CCCCS(=O)(=O)N1Cc2cc(C#N)ccc2N(Cc2c[nH]cn2)C[C@H]1Cc1ccccc1 [Compound 3, (R)-4-(butylsulfonyl)-7-cyano-2,3,4,5-tetrahydro-1-(1H-imidazol-4-ylmethyl)-3-(phenylmethyl)-1H-1,4-benzodiazepine]
- Non-proliferative cells selectivity ratio (fold) [6, 12]: 181.0 fold

- IC90 [6, 13]: 84700 nM
- IC90 [6, 14]: 1080 nM
SMILES: N#Cc1ccc2c(c1)CN(S(=O)(=O)c1ccc(Br)s1)[C@H](Cc1ccccc1)CN2Cc1c[nH]cn1 [Compound 5, (R)-4-[(5-bromo-2-thienyl)sulfonyl]-7-cyano-2,3,4,5-tetrahydro-1-(1H-imidazol-4-ylmethyl)-3-(phenylmethyl)-1H-1,4-benzodiazepine]
- Non-proliferative cells selectivity ratio (fold) [6, 12]: 78.4 fold

SMILES: CCc1c2c(nc3ccc(OC(=O)N4CCC(N5CCCCC5)CC4)cc13)-c1cc3c(c(=O)n1C2)COC(=O)[C@]3(O)CC [CPT-11]
- MTD ([1]; CPT-11 IV (Q2D × 5), HCT116 study): ~30 mg/kg/inj
- Tumor Response CR (%) [7]: 0%
- Tumor Response LCK [7]: 1.5
- Tumor Response PR (%) [7]: 50%

SMILES: C/C(=C\c1csc(C)n1)[C@@H]1C[C@@H]2O[C@]2(C)CCC[C@H](C)[C@H](O)[C@@H](C)C(=O)C(C)(C)[C@@H](O)CC(=O)O1 [Epothilone B, epothilone B]
- cytotoxicity against non-proliferating stationary cells [8]: essentially ineffective
- fold more sensitive: cells in exponential growth (Day 2) vs stationary phase (Day 8) [6]: > 83 fold
- Non-proliferative cells selectivity ratio (fold) [6, 12]: <0.01 fold
- IC90 [6, 15]: 1.3 nM
- IC90 [6, 16]: > 108 nM

- IC90 [6, 13]: 26000 nM
- IC90 [6, 14]: 9600 nM
SMILES: COc1ccc(S(=O)(=O)N2Cc3cc(C#N)ccc3N(Cc3c[nH]cn3)C[C@H]2Cc2ccccc2)cc1 [Compound 7, (R)-7-cyano-2,3,4,5-tetrahydro-1-(1H-imidazol-4-ylmethyl)-4-[(4-methoxyphenyl)sulfonyl]-3-(phenylmethyl)-1H-1,4-benzodiazepine]
- Non-proliferative cells selectivity ratio (fold) [6, 12]: 2.7 fold

SMILES: CC(=O)O[C@H]1C(=O)[C@@]2(C)[C@H]([C@H](OC(=O)c3ccccc3)[C@]3(O)C[C@H](OC(=O)[C@H](O)[C@@H](NC(=O)c4ccccc4)c4ccccc4)C(C)=C1C3(C)C)[C@]1(OC(C)=O)CO[C@@H]1C[C@@H]2O [Paclitaxel, paclitaxel]
- sensitivity of exponentially growing SAL2 cells to single agent [9]: relatively resistant
- maximum tolerated regimen ([1]; Pat-7 study, paclitaxel iv q3d×3, Compound 2 ip q3d×3): 36 mg/kg
- log cell kill [10]: 0.6 LCK
- Tumor Response CR (%) [11]: 0%
- Tumor Response LCK [11]: 2.5
- Tumor Response PR (%) [11]: 20%
- Tumor Response Cures (%) ([11]; Day 77): 0%
- Non-proliferative cells selectivity ratio (fold) [6]: <0.1 fold
- cytotoxicity against non-proliferating stationary cells [6]: essentially ineffective; also recorded: completely non-toxic
- fold more sensitive: cells in exponential growth (Day 2) vs stationary phase (Day 8) [6]: > 10 fold
- IC90 [6, 15]: 17.8 nM
- IC90 [6, 16]: > 162 nM

- IC90 [6, 13]: 91200 nM
- IC90 [6, 14]: 1050 nM
SMILES: COCCCS(=O)(=O)N1Cc2cc(C#N)ccc2N(Cc2c[nH]cn2)C[C@H]1Cc1ccccc1 [Compound 4, (R)-4-(3-methoxypropylsulfonyl)-7-cyano-2,3,4,5-tetrahydro-1-(1H-imidazol-4-ylmethyl)-3-(phenylmethyl)-1H-1,4-benzodiazepine]
- fold less sensitive: cells in exponential growth (Day 2) vs stationary phase (Day 8) [6]: ~91.2 fold
- Non-proliferative cells selectivity ratio (fold) [6, 12]: 86.9 fold

- IC90 Log ([6]; log phase HCT116 cells): >162 μg/ml
- IC90 Stationary ([6]; stationary phase HCT116 cells): 4.6 µg/mL (≈ 35.4 µM)
SMILES: O=c1[nH]cc(F)c(=O)[nH]1 [5-Fluorouracil, 5-fluorouracil]
- cytotoxicity against non-proliferating stationary cells [6]: essentially ineffective
- Non-proliferative cells selectivity ratio (fold) [6, 12]: <0.03 fold
